Reference: patent US9782399B2, “Pharmaceutical compositions which inhibit FKBP52-mediated regulation of androgen receptor function and methods of using same” (The United States of America, as represented by the …, priority 2009, dated 2017)

Tests used:
Type in all cases: cell-based
PSA protein = PSA protein expression in LNCaP cells (Western blotting); conditions: 100 μM, about 48 hours, R1881 0.5 nM
Method: The amount of PSA protein expression levels was measured in cells from the prostate cancer cell line LNCaP, after treatment with either control, or about 1 to 100 μM of each of the four FTA compounds identified in the screen (Compounds 1-4). The protein was quantified by an immunohistochemical method using photodetection.
LNCaP cells were maintained in RPMI-1640 medium containing 10% fetal bovine serum. Forty eight hours prior to the experiment, cells were washed several times in serum-free medium and then cultured in RPMI-1640 medium containing 10% charcoal-stripped fetal bovine serum (to remove endogenous androgens). After 48 hours in this medium, Compound 2 was added in a range of concentrations (0, 3, 10, 30, and 100 μM) for 24 hours, at which time the synthetic androgen, methyltrienolone (R1881), (Sigma, St. Louis, Mo.) was added (0.5 nM). After an additional 48 hours, cells were lysed as described in Yano A., et al., Proc. Natl. Acad. Sci. USA, 105:15541-46 (2008), and PSA protein was monitored by polyacrylamide gel electrophoresis and Western blotting with an anti-PSA antibody (sc-80304, Santa Cruz Biotechnology).

PSA mRNA = PSA mRNA quantitation in LNCaP cells (RT-PCR); conditions: 100 μM, 24 hours, R1881
Method: For PSA mRNA determination, cells were cultured and treated identically, except that lysis for mRNA extraction was performed 24 hours after addition of R1881. Total RNA was isolated using protocols and reagents contained in the Qiagen RNeasy Kit (Valencia, Calif.). TaqMan real-time quantitative RT-PCR analysis of PSA was performed using previously described techniques Hong J A, et al., Cancer Res., 65:7763-74 (2005); Guo F, et al., Cancer Res., 65:10536-44 (2005). The amount of PSA mRNA level and total protein in cells from the prostate cancer cell line LNCaP was measured after treatment with either control, or about 1 to 100 μM of each of the four compounds identified in the screen (Compounds 1-4). It was known that the expression of PSA mRNA in LNCaP cells is driven by an androgen receptor mediated pathway. The mRNA is quantified by a photodetection method over time. […] At 100 μM, mRNA expression was decreased to 40% of control levels.

AR = biological target: T1, AR (Homo sapiens, UniProt P10275, T878A); test: AR nuclear translocation in LNCaP cells; conditions: about 30 μM pre-treatment 24 hours, R1881 0.1 nM 2 hours
T1 construct: endogenous in cells; host or cells: LNCaP
T1 sequence (P10275 1-920 T878A): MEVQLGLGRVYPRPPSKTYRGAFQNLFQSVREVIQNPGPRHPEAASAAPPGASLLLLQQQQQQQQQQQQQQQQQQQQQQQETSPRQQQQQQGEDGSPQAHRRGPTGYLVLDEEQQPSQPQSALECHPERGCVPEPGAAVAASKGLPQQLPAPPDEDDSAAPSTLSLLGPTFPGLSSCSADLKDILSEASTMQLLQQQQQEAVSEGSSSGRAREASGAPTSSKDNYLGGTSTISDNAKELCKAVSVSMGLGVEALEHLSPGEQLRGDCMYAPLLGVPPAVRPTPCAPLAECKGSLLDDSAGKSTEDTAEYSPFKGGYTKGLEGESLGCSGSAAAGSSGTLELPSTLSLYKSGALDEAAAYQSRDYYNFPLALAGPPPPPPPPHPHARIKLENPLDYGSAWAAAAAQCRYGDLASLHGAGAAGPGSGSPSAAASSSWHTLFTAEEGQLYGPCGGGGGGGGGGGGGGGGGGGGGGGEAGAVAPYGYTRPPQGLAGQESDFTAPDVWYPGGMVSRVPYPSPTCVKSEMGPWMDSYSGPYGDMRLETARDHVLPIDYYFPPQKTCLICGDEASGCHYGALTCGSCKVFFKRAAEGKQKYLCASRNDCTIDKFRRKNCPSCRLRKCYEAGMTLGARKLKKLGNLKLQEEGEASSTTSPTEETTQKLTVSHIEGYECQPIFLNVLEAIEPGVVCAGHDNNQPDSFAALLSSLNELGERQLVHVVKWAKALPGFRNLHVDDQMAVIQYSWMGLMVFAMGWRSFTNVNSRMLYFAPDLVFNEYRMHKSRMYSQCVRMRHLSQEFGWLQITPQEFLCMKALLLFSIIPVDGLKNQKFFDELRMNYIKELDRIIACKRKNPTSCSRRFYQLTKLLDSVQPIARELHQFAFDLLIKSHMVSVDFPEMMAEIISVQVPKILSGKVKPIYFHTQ
Method: LNCaP cells were maintained as above. At 50% confluence, cells were washed several times in serum-free RPMI-1640 medium, and re-cultured for 48 hours in RPMI-1640 medium containing 10% charcoal-stripped fetal bovine serum. At that time, compound 2 (termed 21D1C in FIG. 7) was added to a final concentration of about 30 μM. After an additional 24 hours, R1881 was added (0.1 nM) and cells were cultured for an additional 2 hours. At that time, cells were lysed and separated into nuclear and cytosolic fractions following published methods (Schreiber, et al., Nucleic Acids Res., 17:6419 (1989)). Quantification of AR in nucleus and cytosol was performed by Western blotting with an AR-specific antibody following polyacrylamide gel electrophoresis.

ligand-dependent nuclear translocation of AR (AR): significantly prevented
Structure (SMILES): O=C(Nc1cccc(Cl)c1Cl)C1CCCCC1 [Compound 2]
PSA protein expression (printed as mRNA expression) (PSA protein): 20 % of control levels
PSA mRNA expression (PSA mRNA): 40 % of control levels
